For assay [1], the target named is Voltage-gated L-type calcium channel (Rattus norvegicus, UniProt P22002+Q02485+P27732). Briefly: Displacement of [3H]nitrendipine from rat brain L-type [Ca2+] channel. It is filed as tissue-based.
Assay [2] deals with T1, Alpha-2A adrenergic receptor (Homo sapiens, UniProt P08913).
T1 sequence (P08913 whole entry): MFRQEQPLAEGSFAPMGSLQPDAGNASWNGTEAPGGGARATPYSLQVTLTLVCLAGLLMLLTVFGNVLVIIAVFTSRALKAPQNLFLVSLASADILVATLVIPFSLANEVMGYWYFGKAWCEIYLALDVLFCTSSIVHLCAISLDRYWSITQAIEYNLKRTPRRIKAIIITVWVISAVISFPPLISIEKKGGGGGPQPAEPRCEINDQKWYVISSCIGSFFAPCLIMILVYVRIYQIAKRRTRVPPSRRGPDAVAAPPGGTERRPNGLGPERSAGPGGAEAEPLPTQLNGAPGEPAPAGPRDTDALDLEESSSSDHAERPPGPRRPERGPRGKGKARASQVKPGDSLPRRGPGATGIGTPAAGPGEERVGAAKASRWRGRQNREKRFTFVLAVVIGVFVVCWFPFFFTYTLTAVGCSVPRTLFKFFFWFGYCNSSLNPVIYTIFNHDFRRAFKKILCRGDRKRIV
Briefly: Ability to displace [3H]rauwolscine from cloned human Alpha-2A adrenergic receptor.

The target of assay [3] is T2, Alpha-2B adrenergic receptor (Homo sapiens, UniProt P18089).
T2 sequence (P18089 whole entry): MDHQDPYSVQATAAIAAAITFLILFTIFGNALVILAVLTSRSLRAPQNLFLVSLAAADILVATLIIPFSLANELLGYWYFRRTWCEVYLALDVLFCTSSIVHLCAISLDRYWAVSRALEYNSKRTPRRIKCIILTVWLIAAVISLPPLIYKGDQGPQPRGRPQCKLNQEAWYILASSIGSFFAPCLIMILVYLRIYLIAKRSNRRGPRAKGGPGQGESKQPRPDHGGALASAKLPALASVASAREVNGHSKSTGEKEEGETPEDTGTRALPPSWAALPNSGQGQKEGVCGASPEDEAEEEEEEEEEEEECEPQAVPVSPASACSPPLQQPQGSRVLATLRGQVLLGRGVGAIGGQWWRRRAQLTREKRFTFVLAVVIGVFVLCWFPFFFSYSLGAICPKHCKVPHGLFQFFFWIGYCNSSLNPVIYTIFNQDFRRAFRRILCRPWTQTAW

For assay [4], the target named is T3, Alpha-2C adrenergic receptor (Homo sapiens, UniProt P18825).
T3 sequence (P18825 whole entry): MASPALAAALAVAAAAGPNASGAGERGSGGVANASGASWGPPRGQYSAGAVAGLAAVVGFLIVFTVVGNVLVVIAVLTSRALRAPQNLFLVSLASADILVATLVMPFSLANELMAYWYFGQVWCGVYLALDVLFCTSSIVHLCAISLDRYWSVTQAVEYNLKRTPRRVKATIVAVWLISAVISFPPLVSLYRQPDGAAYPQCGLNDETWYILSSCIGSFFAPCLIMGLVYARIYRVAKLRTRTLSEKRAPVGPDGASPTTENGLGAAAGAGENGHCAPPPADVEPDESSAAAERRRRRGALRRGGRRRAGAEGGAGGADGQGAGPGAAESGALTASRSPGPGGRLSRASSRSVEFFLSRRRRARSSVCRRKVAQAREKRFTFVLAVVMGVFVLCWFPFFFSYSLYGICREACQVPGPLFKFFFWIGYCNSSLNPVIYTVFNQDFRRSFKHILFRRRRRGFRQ
Briefly: Ability to displace [3H]rauwolscine from cloned human Alpha-2C adrenergic receptor.

Assay [5] addresses T4, Alpha-1B adrenergic receptor (Homo sapiens, UniProt P35368).
T4 sequence (P35368 whole entry): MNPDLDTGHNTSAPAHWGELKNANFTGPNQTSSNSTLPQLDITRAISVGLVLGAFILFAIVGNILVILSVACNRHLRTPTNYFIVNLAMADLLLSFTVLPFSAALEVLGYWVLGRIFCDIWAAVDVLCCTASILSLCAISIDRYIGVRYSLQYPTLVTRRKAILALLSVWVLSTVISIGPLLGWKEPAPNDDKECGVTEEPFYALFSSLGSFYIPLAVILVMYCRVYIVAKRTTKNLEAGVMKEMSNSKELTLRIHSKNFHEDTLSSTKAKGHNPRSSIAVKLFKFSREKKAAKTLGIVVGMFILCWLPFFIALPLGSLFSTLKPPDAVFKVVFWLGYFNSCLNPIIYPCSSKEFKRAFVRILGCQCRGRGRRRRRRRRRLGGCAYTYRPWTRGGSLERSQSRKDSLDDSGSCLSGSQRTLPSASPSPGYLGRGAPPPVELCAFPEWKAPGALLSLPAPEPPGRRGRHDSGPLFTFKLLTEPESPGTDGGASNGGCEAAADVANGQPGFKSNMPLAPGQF
Briefly: Ability to displace [3H]prazosin from cloned human Alpha-1B adrenergic receptor.

The target of assay [6] is T5, Alpha-1A adrenergic receptor (Homo sapiens, UniProt P35348).
T5 sequence (P35348 whole entry): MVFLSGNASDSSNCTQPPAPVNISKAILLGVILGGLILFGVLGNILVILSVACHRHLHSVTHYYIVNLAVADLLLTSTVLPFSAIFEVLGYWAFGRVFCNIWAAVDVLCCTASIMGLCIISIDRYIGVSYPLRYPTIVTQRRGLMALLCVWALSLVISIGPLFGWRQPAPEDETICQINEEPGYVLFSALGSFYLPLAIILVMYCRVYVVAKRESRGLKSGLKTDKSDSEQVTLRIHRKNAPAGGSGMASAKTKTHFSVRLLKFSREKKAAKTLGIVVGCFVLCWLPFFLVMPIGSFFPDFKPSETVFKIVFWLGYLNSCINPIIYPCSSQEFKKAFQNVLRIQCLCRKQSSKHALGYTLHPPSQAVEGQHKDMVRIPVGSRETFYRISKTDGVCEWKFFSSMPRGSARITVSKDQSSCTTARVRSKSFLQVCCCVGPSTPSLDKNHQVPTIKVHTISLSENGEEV

In assay [7] the target is T6, Alpha-1D adrenergic receptor (Homo sapiens, UniProt P25100).
T6 sequence (P25100 whole entry): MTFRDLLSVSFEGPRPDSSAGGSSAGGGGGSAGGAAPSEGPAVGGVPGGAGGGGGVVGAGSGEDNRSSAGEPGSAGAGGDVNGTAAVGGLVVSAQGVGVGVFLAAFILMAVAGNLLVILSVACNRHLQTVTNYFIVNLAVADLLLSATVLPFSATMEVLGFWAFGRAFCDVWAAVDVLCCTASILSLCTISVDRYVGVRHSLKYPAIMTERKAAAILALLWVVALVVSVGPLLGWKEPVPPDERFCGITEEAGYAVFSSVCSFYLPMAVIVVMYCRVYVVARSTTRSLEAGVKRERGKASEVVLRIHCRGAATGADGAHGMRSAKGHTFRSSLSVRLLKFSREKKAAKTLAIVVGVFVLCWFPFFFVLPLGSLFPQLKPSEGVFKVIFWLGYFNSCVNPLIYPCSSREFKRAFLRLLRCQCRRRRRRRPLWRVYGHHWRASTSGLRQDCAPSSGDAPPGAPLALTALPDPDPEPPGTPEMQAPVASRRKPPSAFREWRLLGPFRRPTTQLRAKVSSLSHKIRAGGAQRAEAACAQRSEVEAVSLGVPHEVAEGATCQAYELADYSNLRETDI
Briefly: Ability to displace [3H]prazosin from cloned human Alpha-1D adrenergic receptor.

Regarding `CO/C(O)=C1\C(C)=NC(C)=C(C(=O)NCCCN2CCC(c3ccccc3)(c3ccccc3)CC2)[C@H]1c1ccc([N+](=O)[O-])cc1`, the Ki in assay [1] was 670 nM; in assay [2], […].
On to `CO/C(O)=C1\C(C)=NC(C)=C(C(=O)OCCCN2CCC(c3ccccc3)(c3ccccc3)CC2)C1c1ccc([N+](=O)[O-])cc1` (configuration not stated), for which the Ki came out at 570 nM in assay [3]; 300 nM in assay [4]; 50 nM in assay [5]; 250 nM in assay [1]; 800 nM in assay [2]; 0.32 nM in assay [6]. In addition, the affinity in assay [7], expressed as Ki, was 210 nM.
As to `COc1cc2nc(N3CCN(C(=O)c4ccco4)CC3)nc(N)c2cc1OC` [PRAZOSIN], the Ki in assay [1] is on record as > 10000 nM.
Take `COc1cc2nc(N3CCN(C(=O)C4CCCO4)CC3)nc(N)c2cc1OC` (configuration not stated) [TERAZOSIN]: the inhibitory constant (Ki) in assay [2] was determined as 550 nM; in assay [7], 3.7 nM.

Broadly, the Ki is the equilibrium dissociation constant of an inhibitor or competing ligand from its target.

The values are drawn from ChEMBL document CHEMBL1128349 (J Med Chem, 1995).
